Reference: patent EP3635128B1, “CONTINUOUS SPECTROMETRIC ASSAYS FOR MEASURING MEPRIN ACTIVITY USING AN AUXILIARY ENZYME” (Vivoryon Therapeutics AG, priority 2017, dated 2018)
Like-named read-outs stand apart in the source and are kept apart here. One block for each compound: values may come before it. Peptide text beside a SMILES is read from it. * marks the point of attachment. pNA = O=[N+]([O-])c1ccc(N*)cc1; AMC = Cc1cc(=O)oc2cc(N*)ccc12

How the values were obtained:
h-meprin β [1] = molecular target: T1, h-meprin β (Homo sapiens, UniProt Q16820); test: coupled continuous fluorometric assay with auxiliary enzyme PtP and fluorogenic AMC substrates; assay type: biochemical; set-up: His6 (N); made in house; host or cells: Pichia pastoris strain X33
T1 sequence (Q16820 62-701): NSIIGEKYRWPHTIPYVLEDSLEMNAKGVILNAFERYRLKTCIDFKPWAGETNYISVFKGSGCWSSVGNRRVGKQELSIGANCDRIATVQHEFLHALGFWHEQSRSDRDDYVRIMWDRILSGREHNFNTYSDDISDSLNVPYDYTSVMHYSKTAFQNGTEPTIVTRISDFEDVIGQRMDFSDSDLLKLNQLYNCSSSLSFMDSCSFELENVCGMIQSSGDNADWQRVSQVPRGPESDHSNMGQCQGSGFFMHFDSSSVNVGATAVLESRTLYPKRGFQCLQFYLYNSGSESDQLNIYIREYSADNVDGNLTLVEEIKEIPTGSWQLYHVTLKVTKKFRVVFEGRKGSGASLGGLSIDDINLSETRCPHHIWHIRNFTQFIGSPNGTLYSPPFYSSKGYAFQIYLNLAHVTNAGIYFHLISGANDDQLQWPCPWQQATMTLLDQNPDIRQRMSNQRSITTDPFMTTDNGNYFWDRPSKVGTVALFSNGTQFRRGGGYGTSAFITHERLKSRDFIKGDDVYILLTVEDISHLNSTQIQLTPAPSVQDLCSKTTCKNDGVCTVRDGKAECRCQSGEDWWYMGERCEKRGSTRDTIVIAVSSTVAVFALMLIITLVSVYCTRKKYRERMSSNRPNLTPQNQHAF
Procedure: (§1) The enzyme assay consisted of prolyl tripeptidyl aminopeptidase from Porphyromonas gingivalis, an appropriate amount of human h-meprin β or α and the chromogenic substrate KKGYVADAP-pNA (stock solution in assay buffer) in a final volume of 0.25 ml h-meprin β assay buffer (20 mM Tris-HCI; pH 7.5) or h-meprin α assay buffer (20 mM HEPES, 10 mM CaCl2, 0,05% Brij; pH 7.4). After 10 minutes preincubation, the reaction was started by addition of the substrate. Subsequently, absorption was measured at 405 nm for 20 minutes with the Tecan Genios Pro Reader (Tecan) at 30°C. PtP activity was determined using an absorption coefficient of 5717 mol/l, which was obtained from a standard curve of p-nitroaniline under assay conditions. A molecular mass of 79500 Da was used to calculate the Kcat value. Prolyl tripeptidyl aminopeptidase activity was measured utilizing the substrate DAP-pNA. In order to maintain conditions identical to those used in the h-meprin β assay, samples (250 µl) contained a final concentration of 0.2% (v/v) dimethyl sulfoxide. One unit is defined as the amount of enzyme that hydrolyses 1 µmol DAP-pNA per minute under the conditions described. The specific activity of the enzyme preparation was 7 units/mg.
Conversion of the fluorogenic substrate KKGYVADAP-AMC by PtP and h-meprin β was analyzed according to assay conditions as described for the chromogenic substrate. Fluorescence was measured at excitation/emission wavelengths of 380/460 nm. The fluorescence coefficient of 8.5×10^8 mol/l for DAP-AMC was calculated from a standard curve of 7-Amino-4-methylcoumarin under assay conditions.

h-meprin β [2] = molecular target: T1, h-meprin β; test: coupled continuous spectrophotometric assay with auxiliary enzyme PtP and chromogenic pNA substrates; assay type: biochemical; set-up: His6 (N); made in house; host or cells: Pichia pastoris strain X33; details: for Kcat / Kcat/KM (s^-1M^-1) / Km: hydrolysis of pNA substrate by meprin β, means ± S.D.
Procedure: as §1
(§2) In the first reaction of the substrate conversion, KKGYVADAP-pNA is cleaved to DAP-pNA by meprin α or β. The second reaction, the release of p-nitroaniline by PtP can be measured in this assay and correlates to the amount of released DAP-pNA by meprin. Based on these terms, a rate equation for irreversible coupled enzyme assays was first described by McClure, giving the opportunity of calculating the required amount of an auxiliary enzyme to minimize the time to reach steady-state conditions (McClure, W. R., Biochemistry. 1969, 8 (7), 2782-2786; Schilling, S., Hoffmann, T., Wermann, M., Heiser, U., Wasternack, C., Demuth, H.-U., Analytical biochemistry. 2002, 303 (1), 49-56, 10.1006/abio.2001.5560). The amount of auxiliary enzyme was calculated as follows (Eq. 1): V2 = −Km2 × ln(1−[DAP−pNA]t/[DAP−pNA]ss)/t. [formula]

h-meprin β [3] = molecular target: T1, h-meprin β; set-up: His6 (N, cleaved yes); made in house; host or cells: Pichia pastoris X33 (pPICZαC), protein harvested from the fermenter supernatant; details: fluorogenic substrate Abz-YVAEAPK(Dpn)G-OH; from Schlenzig et al. 2015; cited from earlier work
h-meprin β [4] = molecular target: T1, h-meprin β; test: coupled continuous spectrophotometric assay with auxiliary enzyme PtP and chromogenic pNA substrates; assay type: biochemical; set-up: His6 (N, cleaved yes); made in house; host or cells: Pichia pastoris X33 (pPICZαC), protein harvested from the fermenter supernatant
Procedure: as §1, §2

h-meprin α [5] = molecular target: T2, h-meprin α (Homo sapiens, UniProt Q16819); test: coupled continuous spectrophotometric assay with auxiliary enzyme PtP and chromogenic substrate KKGYVADAP-pNA; assay type: biochemical
T2 construct: His-tag (N); made in house; host or cells: Drosophila melanogaster S2 cells, stably transfected (pMT/BiP/V5-His C), protein harvested from the culture medium
T2 sequence (Q16819 66-746): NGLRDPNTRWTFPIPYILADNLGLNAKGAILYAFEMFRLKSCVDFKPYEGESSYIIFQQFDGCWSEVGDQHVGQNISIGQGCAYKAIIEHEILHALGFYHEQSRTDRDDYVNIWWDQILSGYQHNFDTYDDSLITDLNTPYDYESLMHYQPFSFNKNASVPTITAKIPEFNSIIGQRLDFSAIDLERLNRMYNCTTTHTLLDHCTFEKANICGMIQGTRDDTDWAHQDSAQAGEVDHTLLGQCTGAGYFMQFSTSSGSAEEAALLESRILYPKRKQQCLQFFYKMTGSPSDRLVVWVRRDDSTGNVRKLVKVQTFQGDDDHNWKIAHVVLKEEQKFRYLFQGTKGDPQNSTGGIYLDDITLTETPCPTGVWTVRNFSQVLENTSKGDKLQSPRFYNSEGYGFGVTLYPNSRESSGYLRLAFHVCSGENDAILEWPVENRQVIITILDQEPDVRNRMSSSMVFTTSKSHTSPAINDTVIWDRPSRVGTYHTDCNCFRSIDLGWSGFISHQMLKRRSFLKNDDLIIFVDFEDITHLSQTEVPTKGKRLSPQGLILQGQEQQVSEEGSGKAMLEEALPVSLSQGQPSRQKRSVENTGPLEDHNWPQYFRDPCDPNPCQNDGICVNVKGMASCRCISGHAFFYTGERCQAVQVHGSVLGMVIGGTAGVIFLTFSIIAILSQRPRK
Procedure: as §1, §2

h-meprin α [6] = molecular target: T2, h-meprin α; test: non-coupled assay with internally quenched fluorogenic substrate; assay type: biochemical; details: fluorogenic substrate Abz-YVADAPK(Dpn)G-OH; unpublished data
h-meprin β [7] = molecular target: T1, h-meprin β; set-up: His6 (N); made in house; host or cells: Pichia pastoris strain X33; details: cited from earlier work; for substrate inhibition at concentrations above: internally quenched substrate, meprin β
[8] = hydrolysis of AMC substrate by meprin β, means ± S.D.
[9] = Dixon plot, four substrate concentrations of KKGYVADAP-pNA
[10] = chromogenic substrate KKGYVADAP-pNA, coupled continuous assay, means ± S.D.
[11] = substrate KKGYVADAP-pNA, six inhibitor and four substrate concentrations
[12] = hydrolysis of internally quenched substrate by meprin β, from Schlenzig et al. 2015

Compound: CC(=O)N[C@@H](CCCCN)C(=O)N[C@@H](CCCCN)C(=O)NCC(=O)N[C@@H](Cc1ccc(O)cc1)C(=O)N[C@H](C(=O)N[C@@H](C)C(=O)N[C@@H](CC(=O)O)C(=O)N[C@@H](C)C(=O)N1CCC[C@H]1C(=O)Nc1ccc2c(C)cc(=O)oc2c1)C(C)C [Ac-KKGYVADAP-AMC] (Ac-KKGYVADAP-{AMC})
Kcat (h-meprin β [1]; [8]): 6.3 ± 1 s⁻¹
Kcat/KM (s^-1M^-1) (h-meprin β [1]; [8]): 10.0×10^4 ± 1.4×10^4 s^-1M^-1
Km (h-meprin β [1]; [8]): 64 µM

Compound: CC(=O)N[C@@H](CCCCN)C(=O)N[C@@H](CCCCN)C(=O)NCC(=O)N[C@@H](Cc1ccc(O)cc1)C(=O)N[C@H](C(=O)N[C@@H](C)C(=O)N[C@@H](CC(=O)O)C(=O)N[C@@H](C)C(=O)N1CCC[C@H]1C(=O)Nc1ccc([N+](=O)[O-])cc1)C(C)C [Ac-KKGYVADAP-pNA] (Ac-KKGYVADAP-pNA)
Kcat (h-meprin β [2]): 20.0 ± 3.5 s⁻¹
Kcat/KM (s^-1M^-1) (h-meprin β [2]): 6.4x10^4 ± 2.5x10^4 s^-1M^-1
Km (h-meprin β [2]): 360 µM

Compound: CC(=O)N[C@@H](CCCNC(=N)N)C(=O)NCC(=O)N[C@@H](CCCNC(=N)N)C(=O)NCC(=O)N[C@@H](Cc1ccc(O)cc1)C(=O)N[C@H](C(=O)N[C@@H](C)C(=O)N[C@@H](CC(=O)O)C(=O)N[C@@H](C)C(=O)N1CCC[C@H]1C(=O)Nc1ccc([N+](=O)[O-])cc1)C(C)C [Ac-RGRGYVADAP-pNA] (Ac-RGRGYVADAP-pNA)
Kcat (h-meprin β [2]): 19.9 ± 10.2 s⁻¹
Kcat/KM (s^-1M^-1) (h-meprin β [2]): 15.0×10^4±1.1×10^5 s^-1M^-1
Km (h-meprin β [2]): 140 µM

Compound: Cc1cc(=O)oc2cc(NC(=O)[C@@H]3CCCN3C(=O)[C@H](C)NC(=O)[C@H](CC(=O)O)NC(=O)[C@H](C)NC(=O)[C@@H](NC(=O)[C@H](Cc3ccc(O)cc3)NC(=O)CNC(=O)[C@H](CCCCN)NC(=O)[C@@H](N)CCCCN)C(C)C)ccc12 [KKGYVADAP-AMC, H-Lys-Lys-Gly-Tyr-Val-Ala-Asp-Ala-Pro-AMC] (H-KKGYVADAP-{AMC})
substrate inhibition (h-meprin β [1]; at concentrations up to 2 mM): no inhibitory effect
Kcat (s^-1) (h-meprin β [1]; [8]): 4.3 ± 6.1×10^-1 s^-1
Kcat/KM (s^-1M^-1) (h-meprin β [1]; [8]): 6.0×10^4 ± 1.6×10^4 s^-1M^-1
Km (h-meprin β [1]; [8]): 74 µM

Compound: CC(C)[C@H](NC(=O)[C@H](Cc1ccc(O)cc1)NC(=O)CNC(=O)[C@H](CCCCN)NC(=O)[C@@H](N)CCCCN)C(=O)N[C@@H](C)C(=O)N[C@@H](CC(=O)O)C(=O)N[C@@H](C)C(=O)N1CCC[C@H]1C(=O)Nc1ccc([N+](=O)[O-])cc1 [KKGYVADAP-pNA, H-Lys-Lys-Gly-Tyr-Val-Ala-Asp-Ala-Pro-pNA] (H-KKGYVADAP-pNA)
substrate inhibition (h-meprin β [2]; at concentrations up to 2 mM): no inhibitory effect
Kcat (h-meprin β [2]): 20 ± 4.1 s⁻¹
Kcat/KM (s^-1M^-1) (h-meprin β [2]): 11.0×10^4 ± 4.8×10^3 s^-1M^-1
Km (h-meprin β [2]): 180 µM

mode of inhibition (h-meprin β [4]; [9]): competitive
IC50 (h-meprin β [4]; [10]): 760 nM
Ki (h-meprin β [4]; [11]): 270 nM
mode of inhibition (h-meprin α [5]; [9]): competitive
IC50 (h-meprin α [5]; [10]): 12 nM
Ki (h-meprin α [5]; [11]): 3.2 nM
IC50 (h-meprin α [6]): 9.6 nM
Compound: CCCCC[C@H](CC(=O)NO)C(=O)N[C@H](C(=O)N1CCC[C@H]1CO)C(C)C [actinonin]
IC50 (h-meprin β [3]): 440 nM

Compound: Abz-MGWMDEIDK(Dnp)SG-OH [OCK+]
substrate inhibition at concentrations above (h-meprin β [7]): above 40 µM

Compound: Abz-YVAEAPK(Dpn)G-OH
Kcat (h-meprin β [7]; [12]): 35.0 ± 2.5 s⁻¹
Kcat/KM (s^-1M^-1) (h-meprin β [7]; [12]): 129.0×10^4 ± 3.0×10^4 s^-1M^-1
Km (h-meprin β [7]; [12]): 27 µM
substrate inhibition at concentrations above (h-meprin β [7]): above 100 µM
